Read-outs that look alike come from different tables or passages of the source.
Columns and labels:
[1] = cited from earlier work; for suppressing ACE-inhibitor induced cough: patients
COVID-19 [2] = experiment: Anecdotal case of a subject with COVID-19 taking ASA; type: in vivo; details: one person; at least 0.4 g ASA orally on at least a few days of the approximately 14-day illness; also 80 mg famotidine daily
COVID-19 [3] = details: COVID-19 patients who had been taking famotidine; cited from earlier work

Row | SMILES | cough severity and cough frequency ([1]; 500 mg ASA daily) | patients with cough completely abolished ([1]; 500 mg ASA daily) | patients with cough significantly reduced ([1]; 500 mg ASA daily) | suppressing ACE-inhibitor induced cough ([1]; intermediate dose, 500 mg ASA daily) | suppressing ACE-inhibitor induced cough ([1]; low dose, 100 mg ASA daily) | common respiratory symptoms and effects of COVID-19 (shortness of breath, cough) (COVID-19 [2]) | clinical outcomes (intubations, deaths, symptoms) vs patients not taking famotidine (COVID-19 [3])
1 | CC(=O)Oc1ccccc1C(=O)O [ASA, acetylsalicylic acid] | Significant reductions | five of 14 | 13 of 14 | extremely effective | ineffective | none of the common respiratory symptoms and effects of COVID-19 | 
2 | NC(N)=Nc1nc(CSCCC(N)=NS(N)(=O)=O)cs1 [famotidine] |  |  |  |  |  |  | better outcomes

From patent US20220105109A1, “METHODS OF TREATING COVID-19 AND COMPOSITIONS THEREFOR” (priority 2020, published 2022)
